# Values quoted from earlier work, collected in patent publication US20160228385A1, “PURIFIED CBD AND CBDA, AND METHODS, COMPOSITIONS AND PRODUCTS EMPLOYING CBD OR CBDA” (COLORADO CAN LLC, priority 2015, published 2016).
# System: human subjects seeking to quit smoking
# Details: CBD administered via an inhaler, compared to no reduction with placebo inhaler
smiles,measurement,value
"C=C(C)[C@@H]1CCC(C)=C[C@H]1c1c(O)cc(CCCCC)cc1O [CBD, Cannabidiol]",reduction of cigarette use,40%
